Source: patent US6750228B1, “Aromatic sulfone hydroxamic acid metalloprotease inhibitor” (priority 1997, dated 2004)
Read-outs that look alike come from different tables or passages of the source.

Assays:
[1] = target: T1, MMP-1 (Homo sapiens, UniProt P03956); assay: biochemical; settings: read-out: MMP-1 IC50
T1 construct: made in house; host or cells: transfected HT-1080 cells (provided by Dr. Harold Welgus, Washington University)
T1 sequence (P03956 100-469): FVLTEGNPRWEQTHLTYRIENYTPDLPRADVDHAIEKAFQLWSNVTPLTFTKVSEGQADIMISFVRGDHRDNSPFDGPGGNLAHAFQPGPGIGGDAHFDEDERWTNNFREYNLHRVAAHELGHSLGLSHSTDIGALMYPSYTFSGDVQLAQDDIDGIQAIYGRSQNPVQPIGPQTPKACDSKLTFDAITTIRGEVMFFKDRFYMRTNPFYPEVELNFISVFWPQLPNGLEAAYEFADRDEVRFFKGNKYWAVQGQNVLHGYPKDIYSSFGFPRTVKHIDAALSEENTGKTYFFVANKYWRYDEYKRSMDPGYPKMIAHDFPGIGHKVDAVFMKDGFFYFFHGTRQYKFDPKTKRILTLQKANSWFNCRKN
How it was run: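 APMA- or trypsin-activated enzymes were preincubated with inhibitor for 5 min at room temperature, then the fluorogenic substrate MCA-Pro-Leu-Gly-Leu-Dpa-Ala-Arg-NH2 was added to a final 4 μM.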

[2] = target: T2, MMP-13 (Homo sapiens, UniProt P45452); assay: biochemical
T2 construct: made in house; host or cells: baculovirus / insect cells
How it was run: (§1)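 Assay buffer 100 mM Tris-HCl, 100 mM NaCl, 10 mM CaCl2, pH 7.5. Activated MMP + inhibitor, 5 min RT; then methoxycoumarin peptide substrate, 4 μM final. Readout fluorescence; IC50 calculated.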

[3] = target: T3, MMP-2 (Homo sapiens, UniProt P08253); assay: biochemical
T3 construct: made in house; provided by Dr. Gregory Goldberg, Washington University
T3 sequence (P08253 110-660): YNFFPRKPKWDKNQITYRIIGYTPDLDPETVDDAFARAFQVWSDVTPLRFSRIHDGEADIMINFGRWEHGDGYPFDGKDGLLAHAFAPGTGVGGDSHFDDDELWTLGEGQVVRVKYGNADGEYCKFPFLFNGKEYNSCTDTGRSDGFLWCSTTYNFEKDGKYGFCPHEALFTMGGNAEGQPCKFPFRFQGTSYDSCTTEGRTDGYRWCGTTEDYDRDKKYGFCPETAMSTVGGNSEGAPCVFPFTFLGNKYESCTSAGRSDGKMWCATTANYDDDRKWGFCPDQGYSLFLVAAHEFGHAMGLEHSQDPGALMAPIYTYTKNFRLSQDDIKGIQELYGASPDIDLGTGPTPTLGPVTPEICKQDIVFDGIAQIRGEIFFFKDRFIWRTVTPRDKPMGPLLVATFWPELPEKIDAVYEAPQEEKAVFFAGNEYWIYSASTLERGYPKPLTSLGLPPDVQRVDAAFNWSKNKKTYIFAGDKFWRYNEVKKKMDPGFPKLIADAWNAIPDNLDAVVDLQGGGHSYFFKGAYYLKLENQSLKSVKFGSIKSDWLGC
How it was run: as §1

[4] = target: T4, MMP-7 (Homo sapiens, UniProt P09237); assay: In vitro metalloprotease inhibition, pH 7.5 with 0.02% 2-mercaptoethanol; format: biochemical; settings: selectively inhibit one or more of MMP-2, MMP-9 and MMP-13
T4 construct: made in house; host or cells: E. coli (clone a gift of Dr. Steven Shapiro, Washington University)
T4 sequence (P09237 95-267): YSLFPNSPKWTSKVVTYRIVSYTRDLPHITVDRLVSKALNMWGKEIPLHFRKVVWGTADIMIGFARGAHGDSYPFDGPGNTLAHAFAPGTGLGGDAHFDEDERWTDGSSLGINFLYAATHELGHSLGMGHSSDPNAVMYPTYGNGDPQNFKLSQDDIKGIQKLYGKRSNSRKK
Protocol: The compounds prepared in the manner described in the Examples above were assayed for activity by an in vitro assay. […] Briefly, 4-aminophenylmercuric acetate (APMA) or trypsin-activated MMPs were incubated with various concentrations of the inhibitor compound at room temperature for 5 minutes.
MMP-1 expressed in transfected HT-1080 cells was provided by Dr. Harold Welgus of Washington University, St. Louis, Mo. The enzyme was also activated using APMA and was then purified over a hydroxamic acid column. Dr. Welgus also provided transfected HT-1080 cells that expressed MMP-9. Transfected cells that expressed MMP-2 were provided by Dr. Gregory Goldberg, also of Washington University. Studies with MMP-7 were carried out at pH 7.5 in the presence of 0.02% 2-mercaptoethanol using conditions otherwise similar to those used for the other enzymes. […]
In the absence of inhibitor activity, a fluorogenic peptide was cleaved at the gly-leu peptide bond, separating the highly fluorogenic peptide from a 2,4-dinitrophenyl quencher, resulting in an increase of fluorescence intensity (excitation at 328 nm/emission at 415 nm). Inhibition was measured as a reduction in fluorescent intensity as a function of inhibitor concentration, using a Perkin Elmer L550 plate reader. The IC50 values were calculated from those values. […]

[5] = tested on: advanced, rapidly progressive, treatment-refractory solid tumor cancers; settings: cited from earlier work
[6] = recombinant human MMP-1, MCA peptide substrate 4 μM, pH 7.5, room temperature
[7] = recombinant human MMP-13, MCA peptide substrate 4 μM, pH 7.5, room temperature, read-out: MMP-13 IC50
[8] = recombinant human MMP-2, MCA peptide substrate 4 μM, pH 7.5, room temperature, read-out: MMP-2 IC50
[9] = MMP-13 IC50 (nM), recombinant human MMP-13, MCA peptide substrate 4 μM, pH 7.5, room temperature

SMILES | IC50 [1, 6] [nM] | IC50 [2, 7] [nM] | IC50 [3, 8] [nM] | further results
N#Cc1cccc(S(=O)(=O)N2CCN(c3ccc(S(=O)(=O)C4(C(=O)NO)CCOCC4)cc3)CC2)c1 [Example 672] | > 10000 | 6.7 | 60 | inhibition of MMP-7 compared with MMP-2, MMP-9 and MMP-13 (selectivity) [4]: substantially less inhibition
CNC(=O)[C@@H](NC(=O)[C@H](CC(C)C)[C@H](O)C(=O)NO)C(C)(C)C [marimastat, Marimastat] | – | – | – | most common drug-related toxicity ([5]; clinical trials in patients): musculoskeletal pain and stiffness; cancer-specific antigens used as surrogate markers for biological activity ([5]; patients with colorectal, pancreatic, ovarian, prostate cancers): dose-related reduction in the rise of cancer-specific antigens
O=C(NO)C1(S(=O)(=O)c2ccc(N3CCC(OCc4ccc(COCC5CCCC5)cc4)CC3)cc2)CCOCC1 [Example 605] | > 10000 | 10.6 | 2000 | –
CS(=O)(=O)N1CCCN(C2CCN(c3ccc(S(=O)(=O)C4(C(=O)NO)CCOCC4)cc3)CC2)CC1 [Example 815] | > 10000 | 140 | 1400 | –
O=C(C1CCN(c2ccc(S(=O)(=O)C3(C(=O)NO)CCOCC3)cc2)CC1)N1CCN(c2cnccn2)CC1 [Example 40] | – | – | – | IC50 [1]: > 10000 nM; IC50 [2, 9]: 26.8 nM; IC50 ([3]; MMP-2 IC50 (nM)): 900 nM
O=C(C1CCN(c2ccc(S(=O)(=O)C3(C(=O)NO)CCOCC3)cc2)CC1)N1CCN(c2cccc(Cl)c2)CC1 [Example 43] | – | – | – | IC50 [1]: > 10000 nM; IC50 ([2]; read-out: MMP-13 IC50): 17.9 nM; IC50 ([3]; read-out: MMP-2 IC50): 5000 nM
O=C(C1CCN(c2ccc(S(=O)(=O)C3(C(=O)NO)CCOCC3)cc2)CC1)N1CCN(c2ccc(C(F)(F)F)cc2[N+](=O)[O-])CC1 [Example 32] | – | – | – | IC50 [1]: > 10000 nM; IC50 ([2]; read-out: MMP-13 IC50): 10 nM; IC50 ([3]; read-out: MMP-2 IC50): 800 nM
COc1ccc(C(=O)C2CCN(c3ccc(S(=O)(=O)C4(C(=O)NO)CCOCC4)cc3)CC2)cc1F [Example 735] | > 10000 | 9 | 800 | –
O=C(NO)C1(S(=O)(=O)c2ccc(N3CCC(c4ccccc4-c4ccc(F)cc4)CC3)cc2)CCOCC1 [Example 543] | > 10000 | – | 5400 | IC50 [2, 9]: 33.7 nM
CN(C)Cc1ccc(COC2CCN(c3ccc(S(=O)(=O)C4(C(=O)NO)CCOCC4)cc3)CC2)cc1 [Example 566] | > 10000 | 15.8 | 57.1 | –
CN(C)c1cccc(NC(=O)C2CCN(c3ccc(S(=O)(=O)C4(C(=O)NO)CCOCC4)cc3)CC2)c1 [Example 77] | > 10000 | 75 | 3400 | –
CC1CC(C)CN(C(=O)C2CCN(c3ccc(S(=O)(=O)C4(C(=O)NO)CCN(C(C)C)CC4)cc3)CC2)C1 (stereo not shown) [Example 458] | > 10000 | 210 | 2100 | –
O=C(C1CCN(c2ccc(S(=O)(=O)C3(C(=O)NO)CCOCC3)cc2)CC1)N1CCN(c2ccc(F)cc2F)CC1 [Example 36] | – | – | – | IC50 [1]: > 10000 nM; IC50 ([2]; read-out: MMP-13 IC50): 15.8 nM; IC50 ([3]; read-out: MMP-2 IC50): 2100 nM
Cn1cnc(S(=O)(=O)N2CCN(c3ccc(S(=O)(=O)C4(C(=O)NO)CCOCC4)cc3)CC2)c1 [Example 684] | > 10000 | 60 | 1450 | inhibition of MMP-7 compared with MMP-2, MMP-9 and MMP-13 (selectivity) [4]: substantially less inhibition
